Paper PMC8284454, “In Vitro Profiling of Antitubercular Compounds by Rapid, Efficient, and Nondestructive Assays Using Autoluminescent Mycobacterium tuberculosis” (Antimicrobial Agents and Chemotherapy, 2021)
Converted amounts (≈) assume the structure as drawn. Where two headings read alike, the source gives them in different places. Marks after values point to notes of the source that are not given here.

Legend:
[1] = system: M. tuberculosis H37Rv_LuxABCDE; experiment: luminescence-based MIC assay (LMICA); conditions: for MIC (±SD) LMICA: 90% reduction of luminescence, 7 days, 7H12 medium, SD from three independent experiments
[2] = system: M. tuberculosis H37Rv_LuxABCDE; experiment: microplate alamarBlue assay (MABA) MIC; conditions: 90% reduction of fluorescence, 7 days, 7H12 medium; SD from three independent experiments
[3] = system: M. tuberculosis H37Rv_LuxABCDE; experiment: luminescence-based MBC assay (LMBCA) / time-kill; type: cell-based, Mycobacterium tuberculosis; conditions: for change of MBC values over time: over 21 days, luminescence time-kill; for time and/or concentration dependence of bactericidal activity: time-kill curves up to day 21
[4] = system: M. tuberculosis H37Rv_LuxABCDE; experiment: microbe, parasite or virus in culture; type: cell-based, Mycobacterium tuberculosis; conditions: day 7, SD from three independent experiments; for MBC: Mycobacterium tuberculosis, read-out: MBC (±SD) via CFU
[5] = system: M. tuberculosis H37Rv_LuxABCDE; type: cell-based, Mycobacterium tuberculosis; conditions: 1:10,000-fold dilution
infected J774 = conditions: day 7, 10 μM
[6] = system: J774-internalized M. tuberculosis (H37Rv); experiment: intracellular activity by luminescence (EC90); type: cell-based, Mycobacterium tuberculosis; conditions: for EC90: RLU
[7] = system: J774 infected with M. tuberculosis strain Erdman; conditions: read-out: Literature reported EC90; cited from earlier work
[8] = system: M. tuberculosis H37Rv_LuxABCDE; experiment: postantibiotic effect by luminescence (RLU); type: cell-based, Mycobacterium tuberculosis; conditions: 1.5 log10 RLU increase, 1:10,000-fold dilution
[9] = Mycobacterium tuberculosis, 168 h, day 7, 99% reduction in RLU vs T0, SD from three independent experiments, read-out: MBC (±SD) via luminescence
[10] = Mycobacterium tuberculosis, 336 h, day 14, 99% reduction in RLU vs T0, read-out: MBC (±SD) by luminescence on day 14
[11] = Mycobacterium tuberculosis, 504 h, day 21, 99% reduction in RLU vs T0, read-out: MBC (±SD) by luminescence on day 21
[12] = day 7, 99% reduction in RLU vs T0, SD from three independent experiments

Compound: CC(=O)NC[C@H]1CN(c2ccc(N3CCOCC3)c(F)c2)C(=O)O1 [Linezolid]
- MIC (±SD) LMICA [1]: 1.7 (0.23) μM
- MIC (±SD) MABA [2]: 1.7 (0.10) μM
- MBC [3, 9]: 9.6 µM (≈ 3.24 µg/mL)
- MBC [3, 10]: 7 µM (≈ 2.36 µg/mL)
- MBC [3, 11]: 6 µM (≈ 2.02 µg/mL)
- change of MBC values over time [3]: decreased
- time and/or concentration dependence of bactericidal activity [3]: mainly time dependent
- MBC [4]: > 29 µM

Compound: COc1c(N2C[C@@H]3CCCN[C@@H]3C2)c(F)cc2c(=O)c(C(=O)O)cn(C3CC3)c12 [Moxifloxacin]
- MIC (±SD) LMICA [1]: 0.13 (0.02) μM
- MIC (±SD) MABA [2]: 0.24 (0.04) μM
- MBC [3, 9]: 0.91 µM (≈ 0.365 µg/mL)
- MBC [3, 10]: 0.42 µM (≈ 0.169 µg/mL)
- MBC [3, 11]: 0.46 µM (≈ 0.185 µg/mL)
- change of MBC values over time [3]: decreased
- time and/or concentration dependence of bactericidal activity [3]: both time and concentration dependent
- MBC [4]: 0.753 µM (≈ 0.302 µg/mL)

Compound: O=[N+]([O-])c1cn2c(n1)OC[C@@H](OCc1ccc(OC(F)(F)F)cc1)C2 [Pretomanid]
- MIC (±SD) LMICA [1]: 0.46 (0.01) μM
- MIC (±SD) MABA [2]: 0.49 (0.02) μM
- MBC [3, 9]: 0.63 µM (≈ 0.226 µg/mL)
- MBC [3, 10]: 12.5 µM (≈ 4.49 µg/mL)
- MBC [3, 11]: 13 µM (≈ 4.67 µg/mL)
- change of MBC values over time [3]: increase
- time and/or concentration dependence of bactericidal activity [3]: both time and concentration dependent
- MBC [4]: 0.5 µM (≈ 0.18 µg/mL)

Compound: C/C=C/C[C@@H]1NC(=O)[C@H](CC(C)C)N2C(=O)[C@H](C[C@H](C)C2O)N(C)C(=O)[C@H](C)NC(=O)[C@H](Cc2ccc(O)c([N+](=O)[O-])c2)NC(=O)[C@H](CC(C)C)N(C)C(=O)[C@H](Cc2cn(C(C)(C)C3CO3)c3ccccc23)NC1=O (stereo partly drawn) [Rufomycin]
- PAE 1× MIC CFU/ml ([5]; 3 h exposure at 1× MIC): 0 h
- PAE 10× MIC CFU/ml ([5]; 3 h exposure at 10× MIC): 48 h
- PAE 100× MIC CFU/ml ([5]; 3 h exposure at 100× MIC): 110 h
- Toxicity against infected J774, percent inhibition at the highest tested concentration (infected J774): 10 (8)* percent
- MIC (±SD) LMICA [1]: 0.010 (0.001) μM
- MIC lower than ecumicin ([1]; ratio of MICs of Table 1): 7 fold
- EC90 ([6]; EC90, day 3, J774 macrophages, read-out: Intracellular activity, EC90 (±SD) Day 3): > 10 µM
- EC90 ([6]; EC90, day 5, J774 macrophages, read-out: Intracellular activity, EC90 (±SD) Day 5): 3.06 µM
- EC90 ([6]; EC90, day 7, J774 macrophages, read-out: Intracellular activity, EC90 (±SD) Day 7): 1.52 µM
- percent inhibition at the highest tested concentration, intracellular activity Day 3 ([6]; day 3, 10 μM): 69%
- MIC (±SD) MABA [2]: 0.032 (0.012) μM
- EC90 [7]: ~0.1 µM
- bactericidal or bacteriostatic activity [3]: bacteriostatic
- MBC (±SD) via luminescence [3, 12]: >1^c μM
- MBC ([3]; day 7, 99% reduction in RLU vs T0, SD from three independent experiments, read-out: MBC (±SD) via luminescence): > 1 µM
- MBC ([3]; day 14, 99% reduction in RLU vs T0, read-out: MBC (±SD) by luminescence on day 14): > 1 µM
- change of MBC values over time [3]: decreased
- time and/or concentration dependence of bactericidal activity [3]: mainly time dependent
- PAE 1× MIC RLU ([8]; 3 h exposure at 1× MIC): 0 h
- PAE 10× MIC RLU ([8]; 3 h exposure at 10× MIC): 40 h
- PAE 100× MIC RLU ([8]; 3 h exposure at 100× MIC): 96 h
- MBC (±SD) via CFU [4]: >1^b μM

Compound: [H]/N=C(/N)N[C@H]1[C@H](O)[C@@H](O)[C@H](O[C@@H]2O[C@@H](C)[C@](O)(C=O)[C@H]2O[C@@H]2O[C@@H](CO)[C@H](O)[C@@H](O)[C@@H]2NC)[C@@H](N/C(N)=N\[H])[C@@H]1O [Streptomycin]
- MIC (±SD) LMICA [1]: 0.12 (0.04) μM
- MIC (±SD) MABA [2]: 0.12 (0.02) μM
- MBC [3, 9]: 0.3 µM (≈ 0.174 µg/mL)
- MBC [3, 10]: 0.5 µM (≈ 0.291 µg/mL)
- MBC [3, 11]: 0.9 µM (≈ 0.523 µg/mL)
- time and/or concentration dependence of bactericidal activity [3]: both time and concentration dependent
- MBC [4]: 0.37 µM (≈ 0.215 µg/mL)

Compound: Capreomycin
- MIC (±SD) LMICA [1]: 0.53 (0.07) μM
- MIC (±SD) MABA [2]: 0.70 (0.03) μM
- MBC (±SD) via luminescence [3, 12]: 1.3 (0.4) μM
- MBC (±SD) by luminescence on day 14 ([3]; day 14, 99% reduction in RLU vs T0): 6.94 (3.8) µM
- MBC (±SD) by luminescence on day 21 ([3]; day 21, 99% reduction in RLU vs T0): 13.65 (2.34) µM
- change of MBC values over time [3]: increase
- MBC (±SD) via CFU [4]: 1.7 (0.9) μM
